Each block holds one compound with its values, some of them ahead of it.
What was measured:
[1] = tested on: Nras^G12D; Mll-Af9 murine AML cells; assay: aKG:succinate ratio in AML cells by GC/MS; format: cell-based; conditions: FIG. 20F
OGDH = molecular target: T1, OGDH (Homo sapiens, UniProt Q02218); assay: OGDH enzyme inhibition in vitro; format: biochemical
T1 sequence (Q02218 41-1023): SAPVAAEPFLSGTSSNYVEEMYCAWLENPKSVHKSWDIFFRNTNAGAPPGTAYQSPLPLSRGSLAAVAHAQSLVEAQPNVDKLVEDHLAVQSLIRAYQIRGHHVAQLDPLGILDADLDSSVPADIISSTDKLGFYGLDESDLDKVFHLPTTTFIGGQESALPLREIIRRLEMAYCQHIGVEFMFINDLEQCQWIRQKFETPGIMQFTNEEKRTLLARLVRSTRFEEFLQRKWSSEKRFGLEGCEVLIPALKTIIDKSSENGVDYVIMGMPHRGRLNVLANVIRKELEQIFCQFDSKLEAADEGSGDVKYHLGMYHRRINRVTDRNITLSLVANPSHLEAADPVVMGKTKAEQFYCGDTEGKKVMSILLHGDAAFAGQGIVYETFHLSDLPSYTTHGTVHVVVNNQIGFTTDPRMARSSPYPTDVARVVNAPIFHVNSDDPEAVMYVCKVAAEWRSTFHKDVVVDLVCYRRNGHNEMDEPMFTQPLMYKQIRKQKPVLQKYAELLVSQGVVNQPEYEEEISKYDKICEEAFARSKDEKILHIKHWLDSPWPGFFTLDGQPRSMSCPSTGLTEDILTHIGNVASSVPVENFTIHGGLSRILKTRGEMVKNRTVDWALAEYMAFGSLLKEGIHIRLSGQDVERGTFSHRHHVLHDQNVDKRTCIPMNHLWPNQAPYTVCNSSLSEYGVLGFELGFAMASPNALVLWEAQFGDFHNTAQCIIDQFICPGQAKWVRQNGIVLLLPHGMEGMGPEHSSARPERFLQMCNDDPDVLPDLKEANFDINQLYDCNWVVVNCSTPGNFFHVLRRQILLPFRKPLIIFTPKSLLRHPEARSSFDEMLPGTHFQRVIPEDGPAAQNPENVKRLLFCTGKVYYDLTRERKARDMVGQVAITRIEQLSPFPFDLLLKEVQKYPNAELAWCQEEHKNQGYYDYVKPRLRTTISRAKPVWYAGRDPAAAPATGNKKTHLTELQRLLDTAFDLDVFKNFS
Excerpt: It is worth noting that there are ongoing clinical trials in hematologic malignancies including AML for a compound designated CPI-613. This drug is an analog of lipoate, a catalytic co-factor and modulator of several metabolic enzymes, including the TCA enzymes pyruvate dehydrogenase (PDH) and OGDH. However, the compound is thought to elicit its anti-cancer effects through an indirect mechanism and may also target additional lipoate-dependent enzymes involved in amino acid catabolism. […] Instead development of specific inhibitors of OGDH was initiated for the purpose of exploiting a known metabolic phenotype mimicking the wt-p53 tumor suppressive effect. These concepts and compounds will be tested in our models of CK AML.

KP^sh cells [2] = assay: RNA-Seq / GSEA / qRT-PCR gene expression in KP^sh cells; format: cell-based, mouse
Description: qRT-PCR. Total RNA was extracted in triplicate wells from indicated conditions using the RNAeasy Mini Kit (Qiagen) according to manufacturer protocols. cDNA was synthesized from 1 μg of RNA (AffinityScript QPCR cDNA synthesis kit, Agilent) and QPCR amplification performed with SYBR green (Perfecta SYBR green fast mix, QuantaBio) using the following primer pairs on a ViiA 7 Real-Time PCR System (Life technologies). 36B4 was utilized as endogenous control.
RNA-Seq. Total RNA was isolated from duplicate wells of indicated conditions. RNA integrity and concentration were assessed using a BioAnalyzer (Agilent). RNA sequencing libraries were generated using Illumina mRNA TruSeq kit with dual index barcoding. […] Approximately 8 million paired-end 76 bp reads were sequenced per replicate on a HiSeq 2500 instrument on RAPID mode. […] Genome wide transcript counting was performed by HTSeq or featureCounts to generate FPKM matrix. […] Differential expression analysis was performed with DESeq2 package in R^50. Genes with a real adjusted p value were used for downstream analyses.
Gene Set Enrichment Analysis. Gene set enrichment analysis (GSEA) was performed using ranked lists. […] GSEAPreranked version 4 was used with default parameters and data were exported and graphed in GraphPad Prism version 7.

KP^sh cells [3] = assay: ATAC-Seq chromatin accessibility in KP^sh cells; format: cell-based, mouse; conditions: KP^sh cells with dox, cell-permeable αKG
Description: Epigenomic Analysis. 1×10^6 KP^sh cells were washed with PBS and plated on and off dox 8 days (−D8) before collecting cells for ATAC-Seq analysis. Cells maintained on dox and off dox were passaged every 48 h. Three days prior to harvest, dimethyl-α-ketoglutarate (DM-αKG) was added to cells grown on dox, while DMSO was added to cells maintained on dox and cells maintained off dox. All cell groups (On dox, DMSO; On dox, DM-αKG; Off dox, DMSO) were split into 6-well plates in duplicate in fresh media containing dox, DM-αKG, and DMSO as indicated two days prior to harvest. This medium was refreshed 24 h before collection. […] Barcoded libraries were pooled (2-4 samples/lane) and run on an Illumina HiSeq 2500 sequencer using 50 bp paired-end reads.
For data analysis, quality and adapter filtering was applied to raw reads using ‘trim_galore’ before aligning to mouse assembly mm9 with bowtie2 using the default parameters. The Picard tool MarkDuplicates was used to remove reads with the same start site and orientation. The BEDTools suite was used to create read density profiles. Enriched regions were discovered using MACS2 and scored against matched input libraries (fold change >2 and FDR-adjusted p-value <0.1). […] ChIP-seq data were processed in the same way as ATAC-seq data, except read density profiles for ChIP included a read extension equivalent to the average library fragment size. […]

dox-treated KP^sh cells = assay: 5hmC flow cytometry in KP^sh cells; format: cell-based, mouse; conditions: KP^sh-2 cells, 4 mM DM-αKG for 72 h
Description: (§1) BrdU, Annexin-V, 5hmC Flow Cytometry Assays. BrdU (BD Pharmigen) and Annexin V (BDPharmigen) analysis was performed in triplicate in cells plated in 6-well dishes under indicated conditions via manufacturers' protocols. 5hmC flow was performed in triplicate in cells plated in 6-well dishes. Briefly, adherent cells were washed with PBS, collected by trypsinization, and fixed on ice for 15 minutes in fixation/permeabilization solution (BD Cat #554714). The cells were then washed with 1× perm/wash buffer (BD Cat #554714) supplemented with 0.1% Triton X, treated with 1× perm/wash buffer supplemented with 0.5% Triton X and 0.5% Nonidet P-40 substitute for 30 minutes. Then, the cells were washed with 1× perm/wash buffer supplemented with 0.1% Triton X, incubated overnight at 4° C. with rabbit anti-5hmC antibody diluted 1:100 in 1× perm/wash buffer supplemented with 0.1% Triton X, washed with 1× perm/wash buffer supplemented with 0.1% Triton X, and incubated for 1 hour at room temperature with goat anti-rabbit Alexa Fluor 700 diluted 1:200 in 1× perm/wash buffer supplemented with 0.1% Triton X. The cells were then washed with 1× perm/wash buffer supplemented with 0.1% Triton X, resuspended in 1× perm/wash buffer, and analyzed.

[4] = tested on: p53 mutant human PDAC cells; assay: 5hmC flow cytometry in human PDAC cells; format: cell-based; conditions: 8988 and Panel cells, 4 mM DM-αKG for 72 h
Description: as §1

KP^sh cells [5] = assay: Cell cycle arrest and senescence (BrdU, SA-β-gal) in KP^sh PDAC cells; format: cell-based, mouse; conditions: KP^sh cells on dox; 3 μM etoposide or 25 nM trametinib, 48 or 96 hours
KP^sh cells [6] = assay: αKG/succinate ratio in KP^sh PDAC cells (metabolite profiling); format: cell-based, mouse; conditions: KP^sh cells on dox; 3 μM etoposide or 25 nM trametinib, 48 or 96 hours
Description: Cell Lines and Cell Culture Treatments. KP^sh-1-3 cells were derived from PDAC that developed in three separate Pdx1-Cre; LSL-KrasG12D; Col1a1-TRE-shp53-shRenilla; Rosa26-CAGs-LSL-rtTA-IRES-mKate2 mice generated by blastocyst injection and maintained on doxycycline (dox) chow (625 mg/kg, Harlan Laboratories) 5 days from birth until sacrifice. […] KP^floxRIK cells were derived from PDAC that developed in a p48-Cre; LSL-KrasG12D; p53^flox/+; Rosa26-CAGs-LSL-rtTA-IRES-mKate2 mouse generated by blastocyst injection. KP^R172HRIK cells were derived from tumors that developed in a p48Cre^ER; LSL-KrasG12D; LSL-p53^R172H/+; Rosa26-CAGs-LSL-rtTA-IRES-mKate2 mouse generated by blastocyst injection. […]
Metabolite Profiling. […] Samples were analyzed using an Agilent 7890A GC coupled to Agilent 5975C mass selective detector. […] Peaks representing compounds of interest were extracted and integrated using MassHunter software (Agilent Technologies) and peak area was normalized to the internal standard (d5-2HG) peak area and protein content of duplicate samples as determined by BCA protein assay (Thermo Scientific). Ions used for quantification of metabolite levels are as follows: d5-2HG m/z 354; citrate, m/z 465; αKG, m/z 304; aspartate, m/z 334; fumarate, m/z 245; malate, m/z 335 and succinate, m/z 247. […]

- specificity for OGDH (OGDH): lacks specificity for OGDH
- concentration at which OGDH is inhibited (OGDH; in vitro): > 200 µM
SMILES: O=C(O)CCCCC(CCSCc1ccccc1)SCc1ccccc1 (centres unmarked) [CPI-613]
- cellular ratio of αKG:succinate [1]: not

SMILES: CC(=O)[O-].[Na+] [acetate, sodium acetate]
- induction of pre-malignant associated genes co-regulated by p53 and αKG (qRT-PCR) (KP^sh cells [2]; 4 mM, 72 h): not

SMILES: COC(=O)CCC(=O)C(=O)OC [cell-permeable αKG, dimethyl-α-ketoglutarate]
- chromatin accessibility (ATAC-Seq) (KP^sh cells [3]): global increase in chromatin accessibility
- expression of genes enriched in malignant PDAC cells (GSEA) (KP^sh cells [2]): concomitant downregulation of genes enriched in malignant PDAC cells
- expression of genes of premalignant PanIN lesions (GSEA) (KP^sh cells [2]): robust increase in expression of genes selectively expressed in cells derived from premalignant PanIN lesions
- cellular 5hmC (dox-treated KP^sh cells): induced cellular 5hmC
- cellular 5hmC [4]: induced cellular 5hmC

SMILES: COc1cc([C@@H]2c3cc4c(cc3[C@@H](O[C@@H]3O[C@@H]5CO[C@@H](C)O[C@H]5[C@H](O)[C@H]3O)[C@H]3COC(=O)[C@H]23)OCO4)cc(OC)c1O [etoposide]
- cell cycle arrest and senescence (KP^sh cells [5]): triggered cell cycle arrest and senescence
- αKG/succinate ratio (KP^sh cells [6]): neither altered the αKG/succinate ratio

Reference: patent US20220280538A1, “METHODS OF TREATING P53 MUTANT CANCERS USING OGDH INHIBITORS” (MEMORIAL SLOAN KETTERING CANCER CENTER, priority 2019, published 2022)
